Test results published in patent publication US8962622B2, “Benzotriazole kinase modulators” (Roche Palo Alto LLC, priority 2006, dated 2015).

| SMILES | melting point [°C] |
| --- | --- |
| OC[C@H]1CCCC[C@H]1Nc1nccc(-n2nnc3ccccc32)n1 [Example 9, (1S,2R)-[2-(4-benzotriazol-1-yl-pyrimidin-2-ylamino)-cyclohexyl]-methanol] | 206.1 to 207.8 |
| CN(c1nccc(-n2nnc3ccccc32)n1)[C@H]1CC[C@H](N(C)S(C)(=O)=O)CC1 [Example 14, N-{trans-4-[(4-benzotriazol-1-yl-pyrimidin-2-yl)-methyl-amino]-cyclohexyl}-N-methyl-methanesulfonamide] | 203.5 to 204 |
| O=C1CCC(=O)N1[C@H]1CC[C@H](Nc2nccc(-n3nnc4ccccc43)n2)CC1 [Example 15, 1-[trans-4-(4-benzotriazol-1-yl-pyrimidin-2-ylamino)-cyclohexyl]-pyrrolidine-2,5-dione] | 205 to 210 |
| O=C1CCC(Nc2nccc(-n3nnc4ccccc43)n2)CC1 [Example 16, 4-(4-benzotriazol-1-yl-pyrimidin-2-ylamino)-cyclohexanone] | 204.9 to 206.5 |
| CC1(O)CCC(Nc2nccc(-n3nnc4ccccc43)n2)CC1 (stereo not drawn) [Example 17, 4-(4-benzotriazol-1-yl-pyrimidin-2-ylamino)-1-methyl-cyclohexanol] | 202.1 to 205.6 |
| COCC(=O)N[C@H]1CC[C@H](Nc2nccc(-n3nnc4ccccc43)n2)CC1 [Example 24, trans-N-[4-(4-Benzotriazol-1-yl-pyrimidin-2-ylamino)-cyclohexyl]-2-methoxy-acetamide] | 233.5 to 235.4 |
